Source: patent publication US8921516B2, “Synthetic, defined fibronectin mimetic peptides and surfaces modified with the same” (Corning Incorporated, priority 2010, dated 2014)

Tests used:
[1] = system: A-172 human glioblastoma cancer cells; assay: A-172 cell attachment to peptide coated surfaces (images and MTS assay); assay type: cell-based; conditions: A-172 cells, images and MTS assay (FIG. 4A and FIG. 4B); compared with BD BioCoat fibronectin surface
Description: FIG. 4A is an image of A-172 human glioblastoma cancer cells attached to a surface that has a coating thereon of […] (SEQ ID NO: 8) referred to therein as “DA2”, […] (SEQ ID NO: 9) referred to therein as “DA4”, […] (SEQ ID NO: 10) referred to therein as “DA1”, […] (SEQ ID NO: 11) referred to therein as “DA3”.
To explore the ability of a surface modified by the compound of the present invention to mimic one or more functional characteristics of a fibronectin coated surface, cells were seeded and monitored on both such surfaces under the same culture conditions. In brief, LNCaP cells, MIA-PaCa-2, A-172, or RKO cells from ATCC were cultured according to supplier's instructions. LNCaP were cultured in RPMI-1640 Medium (ATCC Catalog No. 30-2001) supplemented with 10% fetal bovine serum. MIA-PaCa-2 and A-172 cells were grown in DMEM (Invitrogen cat #11885-084) supplemented with 10% fetal bovine serum. RKO cells were cultured in EMEM (ATCC cat#30-2003) supplemented with 10% fetal bovine serum. Cells were cultured at 37° C. in a humidified incubator with 5% CO2. For seeding, media was removed, cells were washed with PBS, and 3 ml of 0.25% Trypsin-EDTA was added to the cells in T-75 flask. Flasks were examined under the microscope, once cells detached from the surface, 10 ml culture media was added to neutralize Trypsin. Cells were transferred to a 15 ml. BD Falcon tube and centrifuged at 200×g for 10 min. Supernatant was removed and the cell pellet washed once with DMEM (Invitrogen cat #11885-084) having 200 microgram/ml BSA. Cells were resuspended in DMEM having 200 microgram/ml BSA and seeded at 50,000 cells/cm^2 in 1.0 ml media per well of a 24 well plate. The culture surface was either a surface modified by the compound […] (SEQ ID NO: 7) or BD BioCoat fibronectin which served as a positive control. Additionally, BD tissue culture treated surface served as negative control. Cells were incubated for 24 hr at 37° C. in a humidified incubator with 5% CO2.
In addition to the aforementioned visual analysis, MTS analysis was carried out to quantify the degree of cell attachment. In brief, media was removed by inverting the plate and 300 μl complete media containing MTS (Promega cat #G3582) was added to each well of a 24 well plate. Cells were incubated for 1 hr at 37° C. in a humidified incubator at 5% CO2. Following incubation, 0.1 ml media was transferred to BD Falcon™ 96 well plate and absorbance was measured at 490 nm.

[2] = system: LNCaP cells; assay: MTS assay quantification of LNCaP cell attachment; assay type: cell-based, human; conditions: 24 hr post-seeding, FIG. 2, treated surface vs BD BioCoat fibronectin
Description: To explore the ability of a surface modified by the compound of the present invention to mimic one or more functional characteristics of a fibronectin coated surface, cells were seeded and monitored on both such surfaces under the same culture conditions. In brief, LNCaP cells, MIA-PaCa-2, A-172, or RKO cells from ATCC were cultured according to supplier's instructions. LNCaP were cultured in RPMI-1640 Medium (ATCC Catalog No. 30-2001) supplemented with 10% fetal bovine serum. MIA-PaCa-2 and A-172 cells were grown in DMEM (Invitrogen cat #11885-084) supplemented with 10% fetal bovine serum. RKO cells were cultured in EMEM (ATCC cat#30-2003) supplemented with 10% fetal bovine serum. Cells were cultured at 37° C. in a humidified incubator with 5% CO2. For seeding, media was removed, cells were washed with PBS, and 3 ml of 0.25% Trypsin-EDTA was added to the cells in T-75 flask. Flasks were examined under the microscope, once cells detached from the surface, 10 ml culture media was added to neutralize Trypsin. Cells were transferred to a 15 ml. BD Falcon tube and centrifuged at 200×g for 10 min. […]
In addition to the aforementioned visual analysis, MTS analysis was carried out to quantify the degree of cell attachment. […] Following incubation, 0.1 ml media was transferred to BD Falcon™ 96 well plate and absorbance was measured at 490 nm.

[3] = system: A-172 cells; assay: Confluence quantification by IncuCyte of A-172 cell attachment; assay type: cell-based, human; conditions: FIG. 3, treated surface vs BD BioCoat fibronectin
Description: (§1) To explore the ability of a surface modified by the compound of the present invention to mimic one or more functional characteristics of a fibronectin coated surface, cells were seeded and monitored on both such surfaces under the same culture conditions. In brief, LNCaP cells, MIA-PaCa-2, A-172, or RKO cells from ATCC were cultured according to supplier's instructions. LNCaP were cultured in RPMI-1640 Medium (ATCC Catalog No. 30-2001) supplemented with 10% fetal bovine serum. MIA-PaCa-2 and A-172 cells were grown in DMEM (Invitrogen cat #11885-084) supplemented with 10% fetal bovine serum. RKO cells were cultured in EMEM (ATCC cat#30-2003) supplemented with 10% fetal bovine serum. Cells were cultured at 37° C. in a humidified incubator with 5% CO2. For seeding, media was removed, cells were washed with PBS, and 3 ml of 0.25% Trypsin-EDTA was added to the cells in T-75 flask. Flasks were examined under the microscope, once cells detached from the surface, 10 ml culture media was added to neutralize Trypsin. Cells were transferred to a 15 ml. BD Falcon tube and centrifuged at 200×g for 10 min. Supernatant was removed and the cell pellet washed once with DMEM (Invitrogen cat #11885-084) having 200 microgram/ml BSA. Cells were resuspended in DMEM having 200 microgram/ml BSA and seeded at 50,000 cells/cm^2 in 1.0 ml media per well of a 24 well plate. […]

[4] = system: RKO cells; assay: Confluence quantification by IncuCyte of RKO cell attachment; assay type: cell-based, human; conditions: FIG. 3, treated surface vs BD BioCoat fibronectin
Description: as §1

[5] = system: LNCaP cells; assay: LNCaP cell attachment and spreading on modified surface, visualized by microscope; assay type: cell-based, human; conditions: 24 hr post-seeding, microscope images (FIG. 1), surface modified by compound vs BD BioCoat fibronectin
Description: as §1

KSGRARADRVPHSRNTITLTNGGSGGSGGSGRGDSP (two regions of a fibronectin cell-binding domain joined by a flexible linker) [SEQ ID NO: 11]
cell attachment and spreading [1]: supported cell attachment and spreading similar to a BD BioCoat fibronectin surface

KSGRARADRVPHSRNTITLTNSGSGSGSGSGRGDSP (two regions of a fibronectin cell-binding domain joined by a flexible linker) [SEQ ID NO: 10]
cell attachment and spreading [1]: supported cell attachment and spreading similar to a BD BioCoat fibronectin surface

KSGRGRGDRVPHSRNGITLTNSGSGSGSGSGRGDSP (two regions of a fibronectin cell-binding domain joined by a flexible linker) [SEQ ID NO: 12]
cell attachment and spreading [1]: supported cell attachment and spreading similar to a BD BioCoat fibronectin surface

KSGRPREDRVPHSRNSITLTNGGGSGGGSGGGRGDSP (two regions of a fibronectin cell-binding domain joined by a flexible linker) [SEQ ID NO: 9]
cell attachment and spreading [1]: supported cell attachment and spreading similar to a BD BioCoat fibronectin surface

KSGRPREDRVPHSRNSITLTNSGSGSGSGSGRGDSP (two regions of a fibronectin cell-binding domain joined by a flexible linker) [SEQ ID NO: 7]
LNCaP cell attachment (MTS assay, absorbance at 490 nm) [2]: comparable | cell attachment and spreading [1]: supported cell attachment and spreading similar to a BD BioCoat fibronectin surface | confluence quantification by IncuCyte [3]: comparable | confluence quantification by IncuCyte [4]: comparable | cell attachment and spreading [5]: comparable

KSGRPREDRVPHSRNSITLTNSGTGSGTGSGRGDSP (two regions of a fibronectin cell-binding domain joined by a flexible linker) [SEQ ID NO: 8]
cell attachment and spreading [1]: supported cell attachment and spreading similar to a BD BioCoat fibronectin surface
